# Measured values reported in patent US7968595B2, “Substituted 4-aryl-chromene as activator of caspases and inducer of apoptosis and as antivascular agent and the use thereof” (Cytovia, Inc., priority 2006, dated 2011).
# Test system: SNU398
# Assay: Inhibition of cell proliferation (GI50), SNU398
# Format: cell-based
# Conditions: Homo sapiens, SNU-398; Snu398 cells, 72 h, CellTiter-Glo
# Method: Human breast cancer cells MX-1 and MDAMB435, hepatocarcinoma cells SNU398, colon cancer cells HCT116 and HeLa cells were grown and harvested as in Example 7. An aliquot of […] of cells (4.4×10^4 cells/mL) was added to a well of a 96-well microtiter plate containing 5 μL of a 10% DMSO in RPMI-1640 media solution containing 10 nM to 100 μM of R(−)-2,7,8-triamino-4-(3-bromo-4,5-dimethoxy-phenyl)-3-cyano-4H-chromene (1 nM to 10 μM final). An aliquot of 45 μL of cells was added to a well of a 96-well microtiter plate containing 5 μL of a 10% DMSO in RPMI-1640 media solution without compound as the control sample for maximal cell proliferation (LMax). The samples were mixed by agitation and then incubated at 37° C. for 72 h in a 5% CO2−95% humidity incubator. After incubation, the samples were removed from the incubator and 25 μL of CellTiter-Glo™ reagent (Promega) was added. The samples were mixed by agitation and incubated at room temperature for 10-15 min. Plates were then read using a luminescent plate reader (Model SPECTRAfluor Plus, Tecan) to give Ltest values.
# Baseline for GI50 (dose for 50% inhibition of cell proliferation) of initial cell numbers was determined by adding an aliquot of 45 μL of cells or 45 μL of media, respectively, to wells of a 96-well microtiter plate containing 5 μL of a 10% DMSO in RPMI-1640 media solution. […]
smiles,measurement,value
"COc1cc([C@H]2C(C#N)=C(N)Oc3c2ccc(N)c3N)cc(Br)c1OC [Compound 1R, R(−)-2,7,8-triamino-4-(3-bromo-4,5-dimethoxy-phenyl)-3-cyano-4H-chromene]",GI50,0.028 µM
